Assay [1] addresses T1, SaCas9 (Staphylococcus aureus, UniProt J7RUA5).
T1 sequence (J7RUA5 1-1053): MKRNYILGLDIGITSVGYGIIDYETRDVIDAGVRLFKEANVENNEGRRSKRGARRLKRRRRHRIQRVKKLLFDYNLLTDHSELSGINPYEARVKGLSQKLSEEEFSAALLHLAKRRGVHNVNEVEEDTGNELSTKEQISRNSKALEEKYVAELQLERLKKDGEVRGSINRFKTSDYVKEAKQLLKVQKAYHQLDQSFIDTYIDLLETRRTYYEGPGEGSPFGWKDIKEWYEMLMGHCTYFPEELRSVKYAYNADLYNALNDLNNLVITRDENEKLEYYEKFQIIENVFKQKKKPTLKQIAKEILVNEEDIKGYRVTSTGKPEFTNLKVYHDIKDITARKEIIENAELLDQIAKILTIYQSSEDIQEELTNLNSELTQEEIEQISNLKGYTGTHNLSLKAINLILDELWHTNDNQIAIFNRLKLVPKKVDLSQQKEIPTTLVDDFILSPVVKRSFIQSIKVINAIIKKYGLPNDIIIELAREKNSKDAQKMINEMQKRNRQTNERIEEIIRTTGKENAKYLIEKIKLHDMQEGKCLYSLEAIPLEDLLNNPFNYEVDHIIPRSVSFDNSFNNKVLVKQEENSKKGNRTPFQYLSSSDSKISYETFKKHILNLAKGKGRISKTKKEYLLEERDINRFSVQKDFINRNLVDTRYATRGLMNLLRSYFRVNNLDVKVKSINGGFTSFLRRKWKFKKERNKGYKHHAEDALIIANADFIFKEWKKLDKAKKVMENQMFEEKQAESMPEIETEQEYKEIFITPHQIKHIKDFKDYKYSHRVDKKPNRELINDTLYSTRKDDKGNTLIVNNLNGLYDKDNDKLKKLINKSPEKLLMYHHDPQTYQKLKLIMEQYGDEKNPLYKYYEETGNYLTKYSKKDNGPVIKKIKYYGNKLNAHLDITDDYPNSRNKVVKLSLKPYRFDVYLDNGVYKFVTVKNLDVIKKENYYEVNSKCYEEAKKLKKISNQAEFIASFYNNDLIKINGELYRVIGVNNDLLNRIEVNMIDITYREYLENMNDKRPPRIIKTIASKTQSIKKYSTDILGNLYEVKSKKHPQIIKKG
In words: eGFP secondary assay, SaCas9. It is filed as cell-based. As to conditions: for Z score Avg Z: average of two replicates, Zscore>3 selected as hit; for Normalized Inhibition Rep 1: replicate 1; for Normalized eGFP Disruption Rep 1: replicate 1, % eGFP disruption; for Z score Rep1: replicate 1, Zscore>3 selected as hit; for Normalized Inhibition Rep 2: replicate 2; for Normalized eGFP Disruption Rep 2: replicate 2, % eGFP disruption; for Z score Rep 2: replicate 2, Zscore>3 selected as hit. As to the method:
All hit compounds were moved forward into the secondary and tertiary screens, in which they were tested in cell-based assays. An eGFP assay is used to determine hits in cells as the secondary screen (eGFP assay).
The eGFP secondary assay evaluated the hits identified from the primary screen. The compounds were judged off the % eGFP disruption to determine the Cas9 inhibition and the assay Zscore. […] The hits from the secondary screens will be processed through tertiary screens of dose studies and HiBit Assay as detailed herein.

The target in assay [2] is T2, SpCas9 (Streptococcus pyogenes serotype M1, UniProt Q99ZW2). In words: Strand displacement assay (SDA) / cumulative activity assay (CAA), SpCas9 primary screen. Type of assay: biochemical. As to conditions: Primary Screen (150 min); for Average Normalized Z score: average of replicates; for Normalized Z score 1: replicate 1; for Normalized Z score 2: replicate 2. A digest of the protocol:
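SpCas9:gRNA RNP in 20 mM Tris-HCl pH 7.5, 100 mM KCl, 5 mM MgCl2 was used at 10 nM (2× stock) with Alexa Fluor 647-labelled substrate and excess quencher strand (1 nM and 5 nM, 2× stocks). Fluorescence was read after 2.5 h at 37 °C, where cleavage lets the quencher strand anneal.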

Assay [3] has as its target T2, SpCas9. In words: eGFP disruption assay, SpCas9, U2OS.eGFP.PEST cells. The conditions noted are these: for Normalized Z rep1 / Z score Rep1: replicate 1; for SpCas9 eGFP disruption Rep1: replicate 1, raw readout; for Normalized Z rep2 / Z socre Rep2: replicate 2; for SpCas9 eGFP disruption Rep2: replicate 2, raw readout. Type of assay: cell-based. The method in brief:
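Rescue of eGFP signal lost through Cas9-induced NHEJ indels serves as the inhibition read-out, after 24 h compound exposure (20 μM for hits, variable for dose-response). Editing was delivered by nucleofection into U2OS.eGFP.PEST cells as SpCas9/gRNA plasmids (300/30 ng) or RNP (10/12 pmol). Toxic and autofluorescent compounds were excluded.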

Where [4] appears, read: Cas9 = lower control, Ctrl = upper control.
Setting [5] is: normalized, lower control about 0, upper control about 1.

T2 sequence (Q99ZW2 whole entry): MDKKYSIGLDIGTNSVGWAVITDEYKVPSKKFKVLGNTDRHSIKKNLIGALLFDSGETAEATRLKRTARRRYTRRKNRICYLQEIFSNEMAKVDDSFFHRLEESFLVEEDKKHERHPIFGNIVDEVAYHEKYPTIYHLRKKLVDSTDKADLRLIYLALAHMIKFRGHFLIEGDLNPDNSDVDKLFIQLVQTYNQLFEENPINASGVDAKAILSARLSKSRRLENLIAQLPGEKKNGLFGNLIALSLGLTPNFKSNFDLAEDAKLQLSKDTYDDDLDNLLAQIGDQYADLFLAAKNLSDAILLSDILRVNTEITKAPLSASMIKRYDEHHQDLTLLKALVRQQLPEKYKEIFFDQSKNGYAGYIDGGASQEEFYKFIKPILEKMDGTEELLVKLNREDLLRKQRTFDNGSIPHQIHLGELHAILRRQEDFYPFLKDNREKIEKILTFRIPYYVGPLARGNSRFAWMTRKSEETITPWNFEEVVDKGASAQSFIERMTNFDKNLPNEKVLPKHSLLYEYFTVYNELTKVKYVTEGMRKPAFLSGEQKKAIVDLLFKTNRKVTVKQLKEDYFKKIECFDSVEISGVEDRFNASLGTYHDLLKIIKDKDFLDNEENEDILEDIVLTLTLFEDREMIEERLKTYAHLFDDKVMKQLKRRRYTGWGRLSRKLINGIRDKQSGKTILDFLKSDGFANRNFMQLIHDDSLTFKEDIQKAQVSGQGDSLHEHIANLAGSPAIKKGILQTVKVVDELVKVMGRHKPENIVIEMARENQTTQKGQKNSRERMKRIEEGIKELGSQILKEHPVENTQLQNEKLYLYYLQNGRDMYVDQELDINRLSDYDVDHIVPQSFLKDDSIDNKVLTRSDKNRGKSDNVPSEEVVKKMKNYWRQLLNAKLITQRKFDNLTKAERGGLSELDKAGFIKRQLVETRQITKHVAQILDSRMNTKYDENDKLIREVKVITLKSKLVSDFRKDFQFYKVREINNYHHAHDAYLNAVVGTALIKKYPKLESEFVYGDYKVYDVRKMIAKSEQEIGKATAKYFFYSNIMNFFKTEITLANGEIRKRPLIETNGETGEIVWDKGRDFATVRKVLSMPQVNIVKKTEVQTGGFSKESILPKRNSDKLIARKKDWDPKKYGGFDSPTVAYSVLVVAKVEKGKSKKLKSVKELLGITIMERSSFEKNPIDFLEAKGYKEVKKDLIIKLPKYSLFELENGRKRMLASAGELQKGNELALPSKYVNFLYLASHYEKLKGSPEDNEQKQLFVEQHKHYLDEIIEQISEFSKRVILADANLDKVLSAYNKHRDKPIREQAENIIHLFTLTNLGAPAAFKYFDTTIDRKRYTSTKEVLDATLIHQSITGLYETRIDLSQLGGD

As to `Cc1cccc(NC(=O)c2cc3c(=O)n4ccccc4nc3s2)c1` [C243-0026], in assay [1], the “Z score Avg Z” value was found to be 3.100, the “Normalized Inhibition Rep 1” value is recorded as 30.470, the “Normalized eGFP Disruption Rep 1” value is recorded as 69.530 and the “Z score Rep1” value amounted to 3.063. For the same compound, in assay [1], the “Normalized Inhibition Rep 2” value is 40.519, the “Normalized eGFP Disruption Rep 2” value was found to be 59.481 and the “Z score Rep 2” value is 3.136.

With `CCOc1ccc(NC(=O)c2cc(=O)c3cc(CC)ccc3o2)c2cccnc12` [Compound D656-0061], in assay [1], the “Z score Avg Z” value came to 3.973, the “Normalized Inhibition Rep 1” value came out at 7.616, the “Normalized eGFP Disruption Rep 1” value is 92.384 and the “Z score Rep1” value was 1.153. Moreover, in assay [1], the “Normalized Inhibition Rep 2” value was found to be 56.899, the “Normalized eGFP Disruption Rep 2” value is recorded as 43.101 and the “Z score Rep 2” value is 6.794.

In the case of `CCCCn1nnnc1NCc1ccc2c(c1)n(C)c(=O)n2C` [Compound D664-0047], in assay [1], the “Z score Avg Z” value came to 4.425, the “Normalized Inhibition Rep 1” value is reported as 21.201, the “Normalized eGFP Disruption Rep 1” value is given as 78.799 and the “Z score Rep1” value was determined as 3.210. Further, in assay [1], the “Normalized Inhibition Rep 2” value is 47.229, the “Normalized eGFP Disruption Rep 2” value came out at 52.771 and the “Z score Rep 2” value is recorded as 5.639.

On to `COc1ccc(-c2cc(N3CCN(C(=O)c4ccc(C(C)(C)C)cc4)CC3)ncn2)cc1` [Compound M130-0012], for which, in assay [2], the “avg z score primary” value is reported as 20.61, the “Average Normalized Z score” value was 0.28, the “Normalized Z score 1” value was found to be 0.28 and the “Normalized Z score 2” value was determined as 0.28. For the same compound, in assay [3], the “Normalized Z rep1” value is listed as −0.10, the “Z score Rep1” value is on record as −0.67, the “SpCas9 eGFP disruption Rep1” value is 74.104 and the “Normalized Z rep2” value is given as −0.03. Also, in assay [3], the “Z socre Rep2” value is given as −0.27 and the “SpCas9 eGFP disruption Rep2” value was determined as 75.755.

For the compound `COc1ccc(C2CNC(=O)C2)cc1OC1CCCC1` (stereo not shown) [Compound S2127], in assay [2], the “avg z score primary” value stood at 3.63, the “Average Normalized Z score” value was 0.17, the “Normalized Z score 1” value worked out at 0.17 and the “Normalized Z score 2” value worked out at 0.17. In assay [3], the “Normalized Z rep1” value was −0.11, the “Z score Rep1” value is −0.74, the “SpCas9 eGFP disruption Rep1” value was found to be 73.9 and the “Normalized Z rep2” value is −0.28. Also, in assay [3], the “Z socre Rep2” value is listed as −2.66 and the “SpCas9 eGFP disruption Rep2” value was determined as 71.027.

In the case of `Cc1ncc(-c2ccnc(Nc3ccc(S(C)(=O)=O)cc3)n2)n1C(C)C` [Compound S2621], in assay [2], the “avg z score primary” value came to 6.88, the “Average Normalized Z score” value was determined as 0.35, the “Normalized Z score 1” value came out at 0.43 and the “Normalized Z score 2” value was found to be 0.26. Also, in assay [3], the “Normalized Z rep1” value was −1.68, the “Z score Rep1” value is listed as −10.98, the “SpCas9 eGFP disruption Rep1” value came to 43.978 and the “Normalized Z rep2” value is on record as −1.71. In assay [3], the “Z socre Rep2” value was −16.40 and the “SpCas9 eGFP disruption Rep2” value is 43.815.

Take `Cc1[nH]nc2ccc(-c3cncc(OCC(N)Cc4ccccc4)c3)cc12` (stereo not shown) [Compound S2670]: in assay [2], the “avg z score primary” value is recorded as 3.67, the “Average Normalized Z score” value turned out to be 0.19, the “Normalized Z score 1” value amounted to 0.17 and the “Normalized Z score 2” value is given as 0.21. In addition, in assay [3], the “Normalized Z rep1” value was −3.44, the “Z score Rep1” value was −22.46, the “SpCas9 eGFP disruption Rep1” value came out at 10.416 and the “Normalized Z rep2” value was −3.50. For the same compound, in assay [3], the “Z socre Rep2” value is given as −33.58 and the “SpCas9 eGFP disruption Rep2” value was 9.7985.

For the compound `Cl.Cl.Fc1cc(-c2cccc3ncc(-c4cnn(C5CCNCC5)c4)nc23)cc(F)c1CN1CCOCC1` [Compound S2686], in assay [2], the “avg z score primary” value came to 7.03, the “Average Normalized Z score” value came to 0.36, the “Normalized Z score 1” value turned out to be 0.37 and the “Normalized Z score 2” value came out at 0.35. Also, in assay [3], the “Normalized Z rep1” value was −0.73, the “Z score Rep1” value was −4.74, the “SpCas9 eGFP disruption Rep1” value was determined as 62.196 and the “Normalized Z rep2” value is on record as −0.57. Also, in assay [3], the “Z socre Rep2” value was −5.44 and the “SpCas9 eGFP disruption Rep2” value is recorded as 65.516.

Regarding `COc1ccc(-c2cc3c(C)nc(N)nc3n(C3CCC(OCCO)CC3)c2=O)cn1` (stereo not shown) [Compound S2743], in assay [2], the “avg z score primary” value was determined as 8.74, the “Average Normalized Z score” value is 0.45, the “Normalized Z score 1” value stood at 0.45 and the “Normalized Z score 2” value was 0.44. Besides, in assay [3], the “Normalized Z rep1” value is −0.75, the “Z score Rep1” value is −4.92, the “SpCas9 eGFP disruption Rep1” value came to 61.679 and the “Normalized Z rep2” value is reported as −0.89. In addition, in assay [3], the “Z socre Rep2” value is reported as −8.50 and the “SpCas9 eGFP disruption Rep2” value is 59.461.

As for `COc1ccc(-c2ccc3ncc4c(c3c2)n(-c2ccc(N3CCNCC3)c(C(F)(F)F)c2)c(=O)n4C)cn1.O=C(O)C=CC(=O)O` [Compound S2749], in assay [2], the “avg z score primary” value is recorded as 6.76, the “Average Normalized Z score” value came out at 0.34, the “Normalized Z score 1” value was found to be 0.35 and the “Normalized Z score 2” value worked out at 0.34. Moreover, in assay [3], the “Normalized Z rep1” value is given as −3.98, the “Z score Rep1” value was −26.02, the “SpCas9 eGFP disruption Rep1” value is 0 and the “Normalized Z rep2” value was −4.01. In assay [3], the “Z socre Rep2” value was −38.53 and the “SpCas9 eGFP disruption Rep2” value is listed as 0.

With `Cc1c(P(=S)(N2CCOCC2)N2CCOCC2)cc(C#N)n1C` [Compound T0503-9777], in assay [2], the “avg z score primary” value is recorded as 4.67, the “Average Normalized Z score” value amounted to 0.06, the “Normalized Z score 1” value is given as 0.06 and the “Normalized Z score 2” value came out at 0.06. For the same compound, in assay [3], the “Z score Rep1” value is recorded as 1.11 and the “Z socre Rep2” value was 1.28. For the same compound, in assay [3] (setting [4]), the “SpCas9 eGFP disruption Rep1” value was determined as 60.694 and the “SpCas9 eGFP disruption Rep2” value stood at 57.686. Moreover, in assay [3] (setting [5]), the “Normalized Z rep1” value came to 0.08 and the “Normalized Z rep2” value is listed as 0.06.

As to `CCOC(=O)C1=C(C)NN=C(Nc2cccc(C)c2C)S1` [Compound T0519-6400], in assay [2], the “avg z score primary” value is 4.54, the “Average Normalized Z score” value is given as 0.06, the “Normalized Z score 1” value was determined as 0.05 and the “Normalized Z score 2” value stood at 0.07. Moreover, in assay [3], the “Z score Rep1” value came out at 1.96 and the “Z socre Rep2” value is 2.42. In assay [3] (setting [4]), the “SpCas9 eGFP disruption Rep1” value is given as 62.891 and the “SpCas9 eGFP disruption Rep2” value was 59.8. For the same compound, in assay [3] (setting [5]), the “Normalized Z rep1” value is reported as 0.14 and the “Normalized Z rep2” value was determined as 0.12.

On to `CCn1c(CCC(=O)O)nc2cc(S(N)(=O)=O)ccc21` [Compound T5380152], for which, in assay [2], the “avg z score primary” value is given as 4.58, the “Average Normalized Z score” value is 0.13, the “Normalized Z score 1” value stood at 0.14 and the “Normalized Z score 2” value worked out at 0.11. In assay [3], the “Z score Rep1” value is recorded as −1.27 and the “Z socre Rep2” value stood at 4.01. Besides, in assay [3] (setting [4]), the “SpCas9 eGFP disruption Rep1” value is given as 54.565 and the “SpCas9 eGFP disruption Rep2” value is 62.745. For the same compound, in assay [3] (setting [5]), the “Normalized Z rep1” value was −0.09 and the “Normalized Z rep2” value amounted to 0.19.
